Measured values reported in patent publication US20240300945A1, “CLY SERIES COMPOUND, PREPARATION METHOD THEREFOR AND USE THEREOF IN PREPARATION OF DRUGS” (NANJING WELLBEST PHARMACEUTICAL CO., LTD, priority 2021, published 2024).
Marks after values point to notes of the source that are not given here.

Legend:
rat scar model = assay: Rat scar model (skin wound healing); format: in vivo; conditions: rat back wound 2.4 cm; 0.5% cream on the skin
Description: (§1) 1.1 Preparation method of treatment cream: The excipient matrix components included methyl silicone oil (15%), stearic acid (6%), white vaseline (5%), liquid paraffin (5%), octadecanol (5%), glycerin (20%), alkylaryl polyglycol ether (1%), fatty alcohol polyoxyethylene ether (1%), […] (1%), ethyl paraben (0.1%), distilled water (about 31-55%), and mixed with appropriate amount of CLY series compounds to form a mixed emulsion. The emulsion matrix used in this embodiment refers to the matrix component after the active ingredient was removed from the emulsion.
1.2 Grouping and modeling of experimental animals: SPF grade male rats, weighing (210±28) g, from the Animal Center of Nanyi University. The rats were numbered according to their body weight and using the random array method, samples were divided into the model control group (applied cream matrix), CLY-1 treatment group (applied 0.5% CLY-1 cream on the skin), CLY-2 treatment group (applied 0.5% CLY-2 cream on the skin), CLY-3 treatment group (0.5% CLY-3 cream on the skin), CLY-4 treatment group (0.5% CLY-4 cream on the skin), CLY-8 treatment group (0.5% CLY-8 cream on the skin), CLY-11 treatment group (0.5% CLY-11 cream on the skin) CLY-19 treatment group (0.5% CLY-19 cream on the skin), CLY-36 treatment group (0.5% CLY-36 cream on the skin), and CLY-39 treatment group (0.5% CLY-39 cream on the skin), 6 in each group. Rats in each group were anesthetized by intraperitoneal injection of 2% pentobarbital sodium (120 mg/kg) and fixed on the operating table, and then chose a piece of 4×5 cm of intact skin on the back, 8% sodium sulfide hair removal, used tissue scissors to cut a wound with a diameter of 2.4 cm and a depth of muscle fascia at the hair removal site, and damage part of the muscle surface fascia. Animals were kept in separate cages to prevent rats from biting and licking. Applied 2% iodine tincture daily to the wound for routine disinfection, and observed the wound healing of rats.
The wounds were routinely disinfected every day, and the wounds of rats were observed on the 1st, 3rd, 5th, 7th, 12th, and 20th days. […] On the 12th day, the wounds in each treatment group had basically recovered, while the model group still had about 0.5 cm2 of wounds. By the 20th day, the wounds in each group had recovered, and the model control group left obvious scars, while each treatment group only left different amounts of pigmentation.

rabbit ear acne model [1] = assay: Rabbit ear acne model: macroscopic observation and histological grading; format: in vivo, New Zealand rabbits; conditions: right ear, 10 per group; for number of rabbits with acne histological grading 2+: Grade 2; for number of rabbits with acne histological grading —: Level 0, without acne; for number of rabbits with acne histological grading 1+: Level 1; for number of rabbits with acne histological grading 3+: Level 3
Description: as §1, with “(1)” for “1.1”, “alkyl aryl” for “alkylaryl”
(2) Positive therapeutic drug: 0.1% adapalene gel (Trade name: Differin, produced by Laboratoires Galderma, France).
(§2) New Zealand rabbits were, according to weights, randomly divided into the model control group (applied cream matrix), positive treatment group (applied Differin on the skin), CLY-1 external treatment group (0.25% CLY-1 cream on the skin), CLY-2 external treatment group (0.25% CLY-2 cream on the skin), CLY-3 external treatment group (0.25% CLY-3 cream on the skin), CLY-4 external treatment group (0.25% CLY-4 cream on the skin) CLY-8 external treatment group (0.25% CLY-8 cream on the skin), CLY-9 external treatment group (0.25% CLY-9 cream on the skin), CLY-11 external treatment group (0.25% CLY-11 cream on the skin), CLY-19 external treatment group (0.25% CLY-19 cream on the skin), CLY-36 external treatment group (0.25% CLY-36 cream on the skin); CLY-1 intravenous injection group (1 mg/kg·d), CLY-2 intravenous injection group (1 mg/kg·d), CLY-3 intravenous injection group (1 mg/kg·d), CLY-4 intravenous injection group (1 mg/kg·d), CLY-8 intravenous injection group (1 mg/kg·d), CLY-9 intravenous injection group (1 mg/kg·d), CLY-11 intravenous injection group (1 mg/kg·d), CLY-19 intravenous injection group (1 mg/kg·d), and CLY-36 intravenous injection group (1 mg/kg·d), with 10 in each group. Took the inner side of the rabbit's right ear for depilation treatment as the observation area, and the inner side of the left ear of all rabbits as their own negative control, and applied 95% alcohol. The inner side of the right ear of the model group and the treatment group were both coated with 2% coal tar (Alfa Aesar China, which used 95% alcohol to prepare 2% coal tar solution), and evenly applied the sterile cotton swab to the opening of the ear duct on the inner side of the rabbit's ear within the range of about 2 cm×2 cm, once a day, 0.5 mL each time, and wiped the previous application site with warm water for 14 consecutive days to establish the acne micro-pigmentation model. Visually observed the changes of local skin, including ear thickness, hardness, roughness, and whether there was a black angle plug at the hair follicle mouth. 18 hours after the last application, the sample was sacrificed and skin was taken. The skin tissue was taken from the application site by using a 5 mm punch, fixed with 10% formaldehyde, embedded in paraffin, and stained with HE. The histopathological observation and analysis were carried out.
The histological grading criteria of the acne model: 3 grades according to histological grade. […] The tight keratin embolism in the hair follicles causes severe expansion of the hair follicles, obvious hyperplasia of the sebaceous duct epithelium, skin bulges and scars, and some sebaceous glands degenerate “3±”.
(§3) SPSS16 software was used for statistical analysis. The paired t-test was used for the left and right self-contrast, and the t-test was used for the comparison between the groups, P<0.05 was statistically significant.

rabbit ear acne model [2] = assay: Rabbit ear acne model: epidermal thickness, hair follicle area, sebaceous gland diameter; format: in vivo, New Zealand rabbits; conditions: rabbit right ear
Description: as §2
The histopathological changes were observed under the microscope, and the thickness of five different epidermises on a slice was measured with the Biomias99 image analysis system, and the average value was calculated; Detected the area of the two hair follicles and the diameter of the four sebaceous glands with the same position and the most complete structure in the four sections, calculated their average values, and then subtracted the data of the left and right external auditory canal of the rabbits in each group to obtain the difference in the thickness of the left and right ear epidermis, the difference in the area of the hair follicles and the difference in the diameter of the sebaceous glands.
as §3

[3] = external use (0.25% CLY cream; positive: Differin)
[4] = intravenous injection 1 mg/kg·d

Row | Structure (SMILES) | skin wound healing and scar formation (rat scar model) | number of rabbits with acne histological grading 2+ (rabbit ear acne model [1]; [3]) | number of rabbits with acne histological grading 2+ (rabbit ear acne model [1]; [4]) | number of rabbits with acne histological grading — (rabbit ear acne model [1]; [3]) | number of rabbits with acne histological grading — (rabbit ear acne model [1]; [4]) | number of rabbits with acne histological grading 1+ (rabbit ear acne model [1]; [3]) | number of rabbits with acne histological grading 1+ (rabbit ear acne model [1]; [4]) | number of rabbits with acne histological grading 3+ (rabbit ear acne model [1]; [3]) | number of rabbits with acne histological grading 3+ (rabbit ear acne model [1]; [4]) | epidermal thickness (rabbit ear acne model [2]; [3]) | hair follicle area (rabbit ear acne model [2]; [3]) | sebaceous gland diameter (rabbit ear acne model [2]; [3]) | epidermal thickness (rabbit ear acne model [2]; [4]) | hair follicle area (rabbit ear acne model [2]; [4]) | sebaceous gland diameter (rabbit ear acne model [2]; [4])
1 | CN1CCC[C@@H](N(C(=O)c2ccc(-n3nnc4cccnc43)cc2)c2ncccc2Cl)C1 [CLY-1, (R)-4-(3H-[1,2,3]triazolo[4,5-b]pyridin-3-yl)-N-(3-chloropyridin-2-yl)-N-(1-methylpiperidin-3-yl)benzamide] | significantly promote skin wound healing and reduce scar formation | 2 | 1 | 5 | 7 | 3 | 2 | 0 | 0 | 0.2376 ± 0.0182 mm | 0.2736 ± 0.0967* mm^2 | 0.0825 ± 0.0389 mm | 0.2287 ± 0.0171 mm | 0.2256 ± 0.0863* mm^2 | 0.0536 ± 0.0312 mm
2 | CCN1CCC[C@@H](N(C(=O)c2ccc(-n3nnc4cccnc43)cc2)c2ncccc2Cl)C1 [CLY-2, (R)-4-(3H-[1,2,3]triazolo[4,5-b]pyridin-3-yl)-N-(3-chloropyridin-2-yl)-N-(1-ethylpiperidin-3-yl)benzamide] | significantly promote skin wound healing and reduce scar formation | 2 | 1 | 6 | 8 | 2 | 1 | 0 | 0 | 0.2348 ± 0.0169 mm | 0.2639 ± 0.0934* mm^2 | 0.0687 ± 0.0375 mm | 0.2265 ± 0.0165 mm | 0.2232 ± 0.0859* mm^2 | 0.0496 ± 0.0298 mm
3 | CNC1CCCC(N(C(=O)c2ccc(-n3nnc4cccnc43)cc2)c2ncccc2Cl)C1 (stereo not drawn) [CLY-3] | significantly promote skin wound healing and reduce scar formation | 2 | 2 | 4 | 6 | 4 | 2 | 0 | 0 | 0.2385 ± 0.0198 mm | 0.2923 ± 0.0987* mm^2 | 0.0837 ± 0.0412 mm | 0.2316 ± 0.0196 mm | 0.2287 ± 0.0883* mm^2 | 0.0575 ± 0.0354 mm
4 | O=C(c1ccc(-n2nnc3cccnc32)cc1)N(c1ncccc1Cl)C1CCCC(O)C1 (stereo not drawn) [CLY-4] | significantly promote skin wound healing and reduce scar formation | 2 | 2 | 3 | 5 | 5 | 3 | 0 | 0 | 0.2436 ± 0.0215 mm | 0.3254 ± 0.1126* mm^2 | 0.0958 ± 0.0456 mm | 0.2363 ± 0.0235 mm | 0.2465 ± 0.0923* mm^2 | 0.0625 ± 0.0386 mm
5 | O=C(c1ccc(-n2nnc3cccnc32)cc1)N(c1ncccc1Cl)[C@@H]1CCNC1 [CLY-8, (R)-4-(3H-[1,2,3]triazolo[4,5-b]pyridin-3-yl)-N-(3-chloropyridin-2-yl)-N-(pyrrolidin-3-yl)benzamide] | significantly promote skin wound healing and reduce scar formation | 1 | 0 | 8 | 9 | 1 | 1 | 0 | 0 | 0.2237 ± 0.0168 mm | 0.2115 ± 0.0832* mm^2 | 0.0663 ± 0.0307 mm | 0.1843 ± 0.0156 mm | 0.1845 ± 0.0653* mm^2 | 0.0572 ± 0.0289 mm
6 | NC1CCCC(N(C(=O)c2ccc(-n3nnc4cccnc43)cc2)c2ncccc2Cl)C1 (stereo not drawn) [CLY-11] | significantly promote skin wound healing and reduce scar formation | 2 | 1 | 5 | 7 | 3 | 2 | 0 | 0 | 0.2372 ± 0.0176 mm | 0.2745 ± 0.0946* mm^2 | 0.0786 ± 0.0392 mm | 0.2295 ± 0.0173 mm | 0.2246 ± 0.0856* mm^2 | 0.0552 ± 0.0325 mm
